Reference: patent US12570666B2, “Furoindazole derivatives” (Bayer Aktiengesellschaft, priority 2019, dated 2026)
pIC50: −log10 of the molar value.

Molecular target: T1, human GPR84 receptor (Homo sapiens, UniProt Q9NQS5)
T1 construct: frozen aliquots prepared by acCELLerate; host or cells: CHO-K1
Assay: cAMP HTRF assay for identification of cellular GPR84 antagonists
Type: cell-based
Settings: CHO-K1 cells stably expressing human GPR84; Forskolin + agonist 6-OAU (EC80); average or median values
Procedure, shortened: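 IC50 came from 4-parameter fits over 20 μM–0.07 nM (11 points, duplicate), normalized between DMSO (0%) and agonist-free (100% inhibition) wells. Readout: cAMP-d2/Eu-cryptate HTRF in hGPR84 CHO-K1 cells given forskolin plus agonist, compound preincubated 30 min at room temperature.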

T1 sequence (Q9NQS5 whole entry): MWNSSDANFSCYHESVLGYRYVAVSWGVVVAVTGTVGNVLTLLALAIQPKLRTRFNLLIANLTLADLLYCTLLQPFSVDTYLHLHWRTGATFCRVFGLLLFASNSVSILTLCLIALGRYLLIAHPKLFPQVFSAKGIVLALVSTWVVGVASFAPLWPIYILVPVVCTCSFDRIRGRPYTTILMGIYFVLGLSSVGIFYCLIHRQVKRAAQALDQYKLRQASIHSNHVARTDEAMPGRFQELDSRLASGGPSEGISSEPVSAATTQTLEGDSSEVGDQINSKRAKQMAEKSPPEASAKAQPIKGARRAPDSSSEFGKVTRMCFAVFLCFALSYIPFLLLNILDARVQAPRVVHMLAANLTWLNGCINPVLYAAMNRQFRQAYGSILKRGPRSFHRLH

| Compound | pIC50 |
| --- | --- |
| Cc1c(C(=O)NC[C@@H]2CCCO2)oc2c1-c1nn(Cc3ncccn3)cc1CC2 [Example 83, 8-methyl-2-(pyrimidin-2-ylmethyl)-N-[(2S)-tetrahydrofuran-2-ylmethyl]-4,5-dihydro-2H-furo[2,3-g]indazole-7-carboxamide] | 6.74 |
| Cc1noc(C)c1CNC(=O)c1oc2c(c1C)-c1nn(Cc3ccccn3)cc1CC2 [Example 27, N-[(3,5-dimethyl-1,2-oxazol-4-yl)methyl]-8-methyl-2-(pyridin-2-ylmethyl)-4,5-dihydro-2H-furo[2,3-g]indazole-7-carboxamide] | 4.76 |
| Cc1c(C(=O)NC[C@@H]2CCCO2)oc2c1-c1nn(C[C@@H]3CCO3)cc1CC2 [Example 99, 8-methyl-2-[(2S)-oxetan-2-ylmethyl]-N-[(2S)-tetrahydrofuran-2-ylmethyl]-4,5-dihydro-2H-furo[2,3-g]indazole-7-carboxamide] | 6.68 |
| Cc1c(C(=O)NCC2CCCO2)oc2c1-c1nn(CC3COc4ncccc4O3)cc1CC2 (single isomer, unassigned) [Example 52-1] | 7.02 |
| Cc1c(C(=O)NC[C@@H]2CCCO2)oc2c1-c1nn(C(C)(C)c3cccnc3)cc1CC2 [Example 289, 8-methyl-N-{[(2S)-oxolan-2-yl]methyl}-2-[2-(pyridin-3-yl)propan-2-yl]-4,5-dihydro-2H-furo[2,3-g]indazole-7-carboxamide] | 6.10 |
| O=C(NC[C@H]1COCCO1)c1oc2c(c1C(F)(F)F)-c1nn(C[C@H]3COCCO3)cc1CC2 [Example 300, N,2-bis{[(2S)-1,4-dioxan-2-yl]methyl}-8-(trifluoromethyl)-4,5-dihydro-2H-furo[2,3-g]indazole-7-carboxamide] | 6.49 |
| Cc1c(C(=O)NCc2cnoc2)oc2c1-c1nn(Cc3ccccn3)cc1CC2 [Example 24, 8-methyl-N-(1,2-oxazol-4-ylmethyl)-2-(pyridin-2-ylmethyl)-4,5-dihydro-2H-furo[2,3-g]indazole-7-carboxamide] | 5.18 |
| Cc1c(C(=O)NCCN2CCN(C)CC2)oc2c1-c1nn(Cc3ccccn3)cc1CC2 [Example 4, 8-methyl-N-[2-(4-methylpiperazin-1-yl)ethyl]-2-(pyridin-2-ylmethyl)-4,5-dihydro-2H-furo[2,3-g]indazole-7-carboxamide] | 5.79 |
| Cc1c(C(=O)NC[C@@H]2COCCO2)oc2c1-c1nn(C[C@H]3CCCO3)cc1CC2 [Example 106, N[(2R)-1,4-dioxan-2-ylmethyl]-8-methyl-2-[(2R)-tetrahydrofuran-2-ylmethyl]-4,5-dihydro-2H-furo[2,3-g]indazole-7-carboxamide] | 7.11 |
| C[C@@H]1Cc2oc(C(=O)NCc3cncs3)c(C(F)(F)F)c2-c2nn(C[C@H]3COCCO3)cc21 (single isomer, unassigned) [Example 316, (4R or 4S)-2-{[(2S)-1,4-dioxan-2-yl]methyl}-4-methyl-N-[(1,3-thiazol-5-yl)methyl]-8-(trifluoromethyl)-4,5-dihydro-2H-furo[2,3-g]indazole-7-carboxamide] | 6.43 |
| Cn1ccc(CNC(=O)c2oc3c(c2C2CC2)-c2nn(Cc4ccccn4)cc2CC3)n1 [Example 121, 8-cyclopropyl-N-[(1-methyl-1H-pyrazol-3-yl)methyl]-2-(pyridin-2-ylmethyl)-4,5-dihydro-2H-furo[2,3-g]indazole-7-carboxamide] | 7.17 |
| Cc1c(C(=O)NC[C@@H]2CCCO2)oc2c1-c1nn(CCN3CCNCC3)cc1CC2 [Example 162, 8-methyl-2-[2-(piperazin-1-yl)ethyl]-N-[(2S)-tetrahydrofuran-2-ylmethyl]-4,5-dihydro-2H-furo[2,3-g]indazole-7-carboxamide] | 5.17 |
| Cc1cc(CNC(=O)c2oc3c(c2C)-c2nn(Cc4ccccn4)cc2CC3)no1 [Example 8, 8-methyl-N-[(5-methyl-1,2-oxazol-3-yl)methyl]-2-(pyridin-2-ylmethyl)-4,5-dihydro-2H-furo[2,3-g]indazole-7-carboxamide] | 6.68 |
| Cc1c(C(=O)NCC2CC(F)(F)CO2)oc2c1-c1nn(C[C@H]3COCCO3)cc1C1(CC1)C2 (mixture of isomers) [Example 197] | 7.01 |
| Cc1nonc1CNC(=O)c1oc2c(c1C)-c1nn(Cc3ccccn3)cc1CC2 [Example 15, 8-methyl-N-[(4-methyl-1,2,5-oxadiazol-3-yl)methyl]-2-(pyridin-2-ylmethyl)-4,5-dihydro-2H-furo[2,3-g]indazole-7-carboxamide] | 5.70 |

The next compounds have a higher pIC50 than those just listed; values first:

| pIC50 | Compound |
| --- | --- |
| 7.19 | Cc1c(C(=O)NC[C@@H]2COCCO2)oc2c1-c1nn(Cc3ccccn3)cc1CC2 [Example 19-1, N-[(2R)-1,4-dioxan-2-ylmethyl]-8-methyl-2-(pyridin-2-ylmethyl)-4,5-dihydro-2H-furo[2,3-g]indazole-7-carboxamide] |
| 7.20 | CCc1ccc(Cn2cc3c(n2)-c2c(oc(C(=O)NC[C@@H]4CCCO4)c2C)CC3)cn1 [Example 186] |
| 7.29 | O=C(NC[C@@H]1COCCO1)c1oc2c(c1C1CC1)-c1nn(Cc3ccccn3)cc1CC2 [Example 120, 8-cyclopropyl-N-[(2R)-1,4-dioxan-2-ylmethyl]-2-(pyridin-2-ylmethyl)-4,5-dihydro-2H-furo[2,3-g]indazole-7-carboxamide] |
| 7.49 | Cc1ccc(CNC(=O)c2oc3c(c2C)-c2nn(CC4COc5ncccc5O4)cc2CC3)cc1 (stereo not shown) [Example 53] |
| 7.51 | Cc1c(C(=O)NC[C@@H]2CCCO2)oc2c1-c1nn(CC3(F)COC3)cc1CC2 [Example 95, 2-[(3-fluorooxetan-3-yl)methyl]-8-methyl-N-[(2S)-tetrahydrofuran-2-ylmethyl]-4,5-dihydro-2H-furo[2,3-g]indazole-7-carboxamide] |
| 7.55 | O=C(NC[C@@H]1COCCO1)c1oc2c(c1C(F)(F)F)-c1nn(Cc3ccccn3)cc1CC2 [Example 116, N-[(2R)-1,4-dioxan-2-ylmethyl]-2-(pyridin-2-ylmethyl)-8-(trifluoromethyl)-4,5-dihydro-2H-furo[2,3-g]indazole-7-carboxamide] |
| 7.62 | C[C@@H]1Cc2oc(C(=O)NCc3cnccn3)c(C(F)(F)F)c2-c2nn(C[C@H]3COCCO3)cc21 (single isomer, unassigned) [Example 260, (4R or 4S)-2-{[(2S)-1,4-dioxan-2-yl]methyl}-4-methyl-N-[(pyrazin-2-yl)methyl]-8-(trifluoromethyl)-4,5-dihydro-2H-furo[2,3-g]indazole-7-carboxamide] |
| 7.62 | Cc1cnc(CNC(=O)c2oc3c(c2C(F)(F)F)-c2nn(C[C@H]4COCCO4)cc2CC3)cn1 [Example 227, 2-[(2S)-1,4-Dioxan-2-ylmethyl]-N-[(5-methylpyrazin-2-yl)methyl]-8-(trifluormethyl)-4,5-dihydro-2H-furo[2,3-g]indazol-7-carboxamide] |
| 7.62 | C[C@@H]1Cc2oc(C(=O)NC[C@@H]3COCCO3)c(C(F)(F)F)c2-c2nn(CC3CCN(C(=O)C4(C)CC4)CC3)cc21 (single isomer, unassigned) [Example 299, (4R or 4S)-N-{[(2R)-1,4-dioxan-2-yl]methyl}-4-methyl-2-{[1-(1-methylcyclopropane-1-carbonyl)piperidin-4-yl]methyl}-8-(trifluoromethyl)-4,5-dihydro-2H-furo[2,3-g]indazole-7-carboxamide] |
| 7.70 | O=C(NCC1CC(F)(F)CO1)c1oc2c(c1C(F)(F)F)-c1nn(C[C@H]3COCCO3)cc1CC2 (mixture of isomers) [Example 222, N-{[(2±)-4,4-difluorooxolan-2-yl]methyl}-2-{[(2S)-1,4-dioxan-2-yl]methyl}-8-(trifluoromethyl)-4,5-dihydro-2H-furo[2,3-g]indazole-7-carboxamide] |
| 7.89 | CCC(=O)C(=O)N1CCC(Cn2cc3c(n2)-c2c(oc(C(=O)NC[C@@H]4CCCO4)c2C(F)(F)F)C[C@H]3C)CC1 (single isomer, unassigned) [Example 297, (4R or 4S)-4-methyl-2-{[1-(2-oxobutanoyl)piperidin-4-yl]methyl}-N-{[(2S)-oxolan-2-yl]methyl}-8-(trifluoromethyl)-4,5-dihydro-2H-furo[2,3-g]indazole-7-carboxamide] |
| 8.00 | Cc1c(C(=O)NC[C@@H]2CCCO2)oc2c1-c1nn(Cc3ccccn3)cc1C1(CC1)C2 [Example 149] |
| 8.00 | O=C(NC[C@@H]1COCCO1)c1oc2c(c1C(F)(F)F)-c1nn(CC3CC3)cc1CC2 [Example 282, 2-(cyclopropylmethyl)-N-{[(2R)-1,4-dioxan-2-yl]methyl}-8-(trifluoromethyl)-4,5-dihydro-2H-furo[2,3-g]indazole-7-carboxamide] |
| 8.05 | O=C(NC[C@@H]1CCCO1)c1oc2c(c1C(F)(F)F)-c1nn(Cc3ccccn3)cc1C1(CC1)C2 [Example 218, N-{[(2S)-oxolan-2-yl]methyl}-2′-[(pyridin-2-yl)methyl]-8′-(trifluoromethyl)-2′,5′-dihydrospiro[cyclopropane-1,4′-furo[2,3-g]indazole]-7′-carboxamide] |
| 8.22 | O=C(NC[C@@H]1CCCO1)c1oc2c(c1C(F)(F)F)-c1nn(Cc3ccncc3)cc1C1(CC1)C2 [Example 217, 2′-(Pyridin-4-ylmethyl)-N-[(2S)-tetrahydrofuran-2-ylmethyl]-8′-(trifluormethyl)-2′,5′-dihydrospiro[cyclopropan-1,4′-furo[2,3-g]indazol]-7′-carboxamide] |
| 8.22 | CC(=O)N1CCC(Cn2cc3c(n2)-c2c(oc(C(=O)NC[C@@H]4CCCO4)c2C(F)(F)F)C[C@H]3C)CC1 (single isomer, unassigned) [Example 292, (4R or 4S)-2-[(1-acetylpiperidin-4-yl)methyl]-4-methyl-N-{[(2S)-oxolan-2-yl]methyl}-8-(trifluoromethyl)-4,5-dihydro-2H-furo[2,3-g]indazole-7-carboxamide] |
